In patent US12280168B2, “Method for sanitization of a chromatography column” (Cytiva Sweden AB, priority 2019, dated 2025):

Columns and labels:
Format in all cases: cell-based
[1] = test system: Pseudomonas aeruginosa, ATCC 9027; assay: Sanitization study 2: dual adapter strokes, 100 mM PAA in flush channel, slurry chased with 20 mM PAA, 5 day clean hold
Experimental: (§1) A predefined sanitization method based on peracetic acid (PAA) as sanitization agent was evaluated in an AxiChrom™ 300 column (GE Healthcare) packed with agarose beads, as used in the MabSelect™ SuRe Protein A resin (GE Healthcare), by triplicate studies using P. aeruginosa as challenging organism. All parts in contact with the process flow including the resin were pre-cleaned, challenged, sanitized and evaluated. Microbial sampling was performed at predetermined sites on the system. Flow through samples were collected from the process chamber during the run and from the flush channel, process chamber and resin valve after finishing the sanitization method. Additional flow through samples were collected after five to six days of clean hold. Test methods used are presented below. The results were evaluated against stated acceptance criteria.
(§2) Pseudomonas aeruginosa, ATCC 9027, Gram negative bacteria
(§3) 1×10^7 CFU/ml or CFU/unit (CFU=Colony forming unit) […]
(§4) TSA plates streaked with P. aeruginosa ATCC 9027 (in-house glycerol stocks) were incubated in 37° C. over night (O.N.). […] O.N. Based on measured optical densities (ODs) of the inoculates and the assumption that 1 OD≈2×10^9 CFU/mL for P. aeruginosa, calculations were made on the volumes needed of the inoculate to be added to the resin slurry suspended in 50 mM NaCl. […] The microorganism concentrations were determined with test method 5. […]

[2] = test system: Pseudomonas aeruginosa, ATCC 9027; assay: Sanitization study 1: AxiChrom 300 column packed with resin inoculated with challenging organism, sanitized with peracetic acid
Experimental: as §1, §2, §3, §4

[3] = test system: Pseudomonas aeruginosa, ATCC 9027; assay: Sanitization study 3: dual adapter strokes, 100 mM PAA in flush channel, resin valve opened and closed twice, 6 day clean hold
Experimental: as §1, §2, §3, §4

Structure (SMILES): CC(=O)OO [PAA, peracetic acid]
- Outcome against acceptance criteria, study 2 ([1]; positive control G showed no challenging organism): did meet the acceptance criteria
- Result study 2, challenging organism in consolidation effluent / water rinse flowthrough after chasing slurry with 20 mM PAA ([1]; test method 5 viable count, samples G and J, before the sanitization method): 0 CFU/mL
- Outcome against acceptance criteria, study 1 [2]: did not meet the acceptance criteria
- Result study 1, resin after sanitization ([2]; test method 6 agar plate, 20 mM PAA): 0 CFU/g
- Outcome against acceptance criteria, study 3 [3]: met the acceptance criteria
- Challenging organism found after sanitization, study 3 ([3]; all sampling points): no challenging organism was discovered
